The values that follow are results of earlier work, collected in US20130251696A1, “Antioxidant Composition for Reducing Oxidative Stress Ascribable to the Treatment with Hormonal Contraceptive Drugs” (COR.CON. INTERNATIONAL S.R.L., priority 2010, published 2013).

The conditions of this data set: principal organs (heart, brain, liver, uterus etc.).

Each structure is given as a SMILES string.

In the case of `O=C(O[C@@H]1Cc2c(O)cc(O)cc2O[C@@H]1c1cc(O)c(O)c(O)c1)c1cc(O)c(O)c(O)c1` [EGCG, epigallocatechin gallate], the “tissue levels as % of blood levels” value was 8-10%.
